In US20220387552A1, “METHODS OF MODULATING HAIR FOLLICLE STEM CELL QUIESCENCE BY MODULATING DERMAL NICHE ACTIVATOR GAS6” (President and Fellows of Harvard College, priority 2019, published 2022):
Entries after “also recorded” stand apart in the source; their conditions may differ.

Legend:
FACS-purified HFSCs = experiment: Colony formation assay of cultured HFSCs; type: cell-based, mouse
Experimental: For the isolation of HFSCs, mouse dorsal skin was dissected, and the fat layer was removed using a surgical scalpel. The skin was incubated in trypsin-EDTA at 37° C. for 35-45 min on an orbital shaker. Single-cell suspension was obtained by scraping the epidermal side and filtering. Cells were centrifuged for 8 min at 350 g at 4° C., resuspended in 5% fetal bovine serum, and stained for 30-40 min. The following antibodies were used: CD49f (Integrin alpha 6)-PE (eBioscience, 12-0495-82; 1:500); CD34-eFlour660 (eBioscience, 50-0341-82; 1:100); Sca-1-PerCP-Cy5.5 (eBioscience, 45-5981-82; 1:1000); and CD45-eFlour450 (eBioscience, 48-0451-82; 1:250). The HFSCs were isolated as CD45^−, Integrin alpha 6^+, CD34^+, Sca-1^− cells.
FACS-purified HFSCs were plated on mitomycin C (P212121, Cat #M92010)-treated J2 fibroblast feeders at a density of 10,000 cells/well of 12-well plates, in E media supplemented with 15% (v/v) serum and 0.3 mM calcium as described in previous studies^78,79. For Gas6-treatment, E medium was supplemented with recombinant mouse Gas6 protein (R&D systems, Cat #8310-GS) at 500 ng/ml. For R428-treatment experiments, E medium was supplemented with R428 (APExBIO, Cat #A8329) at 1 μM. Cells were fixed and stained with 1% (wt/vol) Rhodamine B (Millipore Sigma, R6626). Colony diameter was measured from scanned images of plates using Image J.

ADX mice [1] = experiment: Hair cycle progression of ADX mice treated topically with R428; type: in vivo; conditions: R428 2 mM in ethanol, topical once a day, back skin of ADX mice
Experimental: (§1) C57BL/6J mice were anesthetized. Small incisions were made on the back skin right on top of each adrenal gland. Both adrenal glands were removed with a pair of curved forceps. Sham-operated mice (Sham) underwent the same procedures as the ADX mice, except their adrenal glands were not removed.
RU486 (TCI America, Cat #M1732; 4% in ethanol) was used to induce K15-CrePGR by topical application for 10-14 days. To induce Pdgfra-CreER and Sox2-CreER, tamoxifen (Millipore Sigma, T5648; 20 mg/kg) was injected into mice intraperitoneally once per day for 4 to 6 days. To inhibit AXL activity, R428 (APExBIO, A8329; 2 mM in ethanol) was applied to ADX mice topically once a day. EdU (Lumiprobe Corporation, Cat #10540; 25 mg/kg) were administered by intraperitoneal injections. AAVs were produced as described previously^46 and injected directly into dermis through intradermal injections. 2-month-old C57BL/6J mice were injected with AAV-GFP or AAV-Gas6 (1×10^11 genome copy number per animal).
The hair cycle progression was documented by standardized photographs at the start of each experiment and weekly thereafter. Anagen was determined by darkening of the skin followed by hair growth as previously described^75. The back skin of mice was shaved with an electric clipper to reveal skin colour changes and hair coat recovery. […] Telogen length was quantified as described previously^19.

[2] = Plasma corticosterone levels by ELISA after corticosterone feeding; type: in vivo, mice
Experimental: 35 μg/ml Corticosterone (Millipore Sigma, C2505) was dissolved in vehicle (0.45% hydroxypropyl-β-cyclodextrine in drinking water) in drinking water during the entire corticosterone feeding period. Corticosterone water was changed every 3 days to prevent degradation. Control animals received the vehicle water. Blood corticosterone levels were measured by ELISA (ARBOR assays, [MUT]-H1) according to the manufacturer's instruction. Serum was collected using the heparinized tubes (Microvette® CB 300 LH or Microvette® 300 LH, Sarstedt) between 10 a.m. and 12 p.m.

ADX mice [3] = experiment: Hair cycle progression of ADX mice fed corticosterone in drinking water; type: in vivo; conditions: 35 μg/ml corticosterone in drinking water
Experimental: as §1
The hair cycle progression was documented by standardized photographs at the start of each experiment and weekly thereafter. Anagen was determined by darkening of the skin followed by hair growth as previously described^75. The back skin of mice was shaved with an electric clipper to reveal skin colour changes and hair coat recovery. Once the hair coat recovery reached ˜90% of the back skin, the mice were shaved again to monitor the entry into next anagen. Telogen length was quantified as described previously^19.
Control animals received the vehicle water.

hair follicle = conditions: corticosterone feeding mice
Experimental: 35 μg/ml Corticosterone (Millipore Sigma, C2505) was dissolved in vehicle (0.45% hydroxypropyl-β-cyclodextrine in drinking water) in drinking water during the entire corticosterone feeding period. Corticosterone water was changed every 3 days to prevent degradation. Control animals received the vehicle water.
The skin samples were fixed in 4% paraformaldehyde (PFA, Electron Microscopy Sciences, Cat #15713) for 15 min at room temperature, washed in phosphate buffered saline (PBS), immersed in 30% sucrose solution overnight at 4° C., and embedded in optimal cutting temperature compound (Sakura Finetek, Cat #4583). 35 μm thick sections were fixed in 4% PFA. The fixed slides were then blocked in blocking buffer (5% Donkey serum, 1% bovine serum albumin, 2% cold-water fish gelatin in 0.3% Triton X-100 in PBS) for 1 h at room temperature, incubated with primary antibodies overnight at 4° C., and incubated with secondary antibodies for 2-4 h at room temperature. The following antibodies and dilutions were used: CD34 (eBioscience, 14-0341-85, 1:100), P-Cadherin (R&D Systems, AF761, 1:400), GFP (Abcam, ab290, 1:5000) and Cleaved Caspase-3 (Cell Signaling Technology, 1:300). DAPI was used as a counterstain for the nucleus.

C57BL/6 mice = experiment: Hair cycle progression of C57BL/6 mice under chronic corticosterone feeding; type: in vivo; conditions: wild-type mice, supplemental corticosterone in drinking water from second telogen; vehicle mice entered anagen around P90-P100
Experimental: The hair cycle progression was documented by standardized photographs at the start of each experiment and weekly thereafter. Anagen was determined by darkening of the skin followed by hair growth as previously described^75. The back skin of mice was shaved with an electric clipper to reveal skin colour changes and hair coat recovery. Once the hair coat recovery reached ˜90% of the back skin, the mice were shaved again to monitor the entry into next anagen. Telogen length was quantified as described previously^19. 35 μg/ml Corticosterone (Millipore Sigma, C2505) was dissolved in vehicle (0.45% hydroxypropyl-β-cyclodextrine in drinking water) in drinking water during the entire corticosterone feeding period. Corticosterone water was changed every 3 days to prevent degradation. Control animals received the vehicle water.

Nc1nc(Nc2ccc3c(c2)CC[C@@H](N2CCCC2)CC3)nn1-c1cc2c(nn1)-c1ccccc1CCC2 [R428]
HFSC colony formation (FACS-purified HFSCs; R428 at 1 μM in E medium): inhibited HFSC colony formation | anagen entry / hair growth (hair cycle progression) (ADX mice [1]): suppressed their precocious anagen entry; also recorded: repress the phenotypes of ADX; also recorded: inhibit hair growth

C[C@]12C[C@H](O)[C@H]3[C@@H](CCC4=CC(=O)CC[C@@]43C)[C@@H]1CC[C@@H]2C(=O)CO [corticosterone]
plasma corticosterone levels ([2]; ADX mice, corticosterone in drinking water): restored | corticosterone levels in the circulation ([2]; wild-type mice, supplemental corticosterone in drinking water): enhanced corticosterone levels in the circulation | HFSC activation / quiescence (hair cycle progression) (ADX mice [3]): effectively suppressed the aberrant activation of HFSCs; also recorded: suppress the loss of HFSC quiescence of ADX mice | abnormal cell death in hair follicle (aCAS3) (hair follicle): does not display abnormal cell death | anagen entry (hair cycle progression) (C57BL/6 mice): stayed in telogen

B1: Gas6: recombinant mouse Gas6 protein (R&D systems, Cat #8310-GS); gamma-carboxyglutamic acid-containing secreted protein, AXL ligand (protein, UniProt Q61592 28-674, looked up)
Growth arrest-specific …: VLLRAREAAQFLRPRQRRAYQVFEEAKQGHLERECVEEVCSKEEAREVFENDPETEYFYPRYQECMRKYGRPEEKNPDFAKCVQNLPDQCTPNPCDKKGTHICQDLMGNFFCVCTDGWGGRLCDKDVNECVQKNGGCSQVCHNKPGSFQCACHSGFSLASDGQTCQDIDECTDSDTCGDARCKNLPGSYSCLCDEGYTYSSKEKTCQDVDECQQDRCEQTCVNSPGSYTCHCDGRGGLKLSPDMDTCEDILPCVPFSMAKSVKSLYLGRMFSGTPVIRLRFKRLQPTRLLAEFDFRTFDPEGVLFFAGGRSDSTWIVLGLRAGRLELQLRYNGVGRITSSGPTINHGMWQTISVEELERNLVIKVNKDAVMKIAVAGELFQLERGLYHLNLTVGGIPFKESELVQPINPRLDGCMRSWNWLNGEDSAIQETVKANTKMQCFSVTERGSFFPGNGFATYRLNYTRTSLDVGTETTWEVKVVARIRPATDTGVLLALVGDDDVVPISVALVDYHSTKKLKKQLVVLAVEDVALALMEIKVCDSQEHTVTVSLREGEATLEVDGTKGQSEVSTAQLQERLDTLKTHLQGSVHTYVGGLPEVSVISAPVTAFYRGCMTLEVNGKILDLDTASYKHSDITSHSCPPVEHATP
HFSC colony formation (FACS-purified HFSCs; recombinant mouse Gas6 protein at 500 ng/ml in E medium): formed more colonies
